Literature values, collected in publication PMC4221044, “Antimicrobial GL13K Peptide Coatings Killed and Ruptured the Wall of Streptococcus gordonii and Prevented Formation and Growth of Biofilms” (PLoS ONE, 2014).

Experiments:
[1] = test system: planktonic Pseudonomas aeruginosa; details: peptide in solution
Description: (§1) Functionalization of titanium surfaces with coatings made of antimicrobial agents has recently been explored to inhibit peri-implant infections. The coatings can contain nanoparticles of pure elements, [5]; sanitizing agents and disinfectants; and antibiotics as well as antimicrobial peptides. Gentamicin [7]–[9] and Vancomycin [10]–[13] have been coated on Ti surfaces for protecting from infection dental and orthopedic implants.

[2] = test system: Pseudonomas aeruginosa biofilms; details: 100 µg/ml GL13K
Description: as §1

Streptococcus gordonii = details: 100 µg/ml GL13K
Description: as §1

In the case of “GKIIKLKASLKLL-NH2 [GL13K, antimicrobial peptide …-NH2 derived from the human salivary protein BPIFA2]”, the MIC [1] is given as 8 µg/mL, the reduction of biofilms [2] is given as “three orders of magnitude” and the bacteria killed (Streptococcus gordonii) is given as 100%.
